Measured values from US20100267637A1, “TREATMENT OF MELANOMA WITH ALPHA THYMOSIN PEPTIDES IN COMBINATION WITH A KINASE INHIBITOR” (SciClone Pharmaceuticals, Inc., priority 2007, published 2010).
Where no end group is shown, it is not given here.

Test system: murine B16 melanoma cells
Assay: Anti-tumor effect: tumor weight at necropsy (Day 16) in mice bearing subcutaneous B16 melanoma
Assay type: in vivo, C57BL/6 mice
Settings: for Tumor Weight (g) (Mean ± SD): group mean
Description: The toxic effects of the dosing regimens were also monitored. […] Meanwhile 9H10 was given in two groups via i.p. on Day 3, 6 and 9. […] Tumor volume and body weight were measured every three days, and tumor weights were measured on Day 16 at the end of the study.
On the day of tumor implantation, approximately 1×10^6 cells in 0.1 mL were subcutaneously injected on the right axillary area of each mouse. The day of tumor implantation was defined as Day 0.
On Day 3, the animals were randomly assigned into nine different weight-matched and tumor-size-matched groups. Dosing was started on Day 3 using the regimen according to Table 2.
From Day 1 to Day 15, mortality and moribundity were checked twice daily, the body weights were recorded once every 3 days, and tumors were measured using a caliper once every 3 days. At the end of the study (Day 16), the animals were euthanized by CO2 asphyxiation, and the tumors were excised and weighed.
The anti-tumor effect of the test article was further evaluated with tumor weight (TW) measured on day of necropsy (Day 16). The PI of TW was calculated using the equation below:
PITW(%)=100×(TW vehicle−TW drug treated)/TW vehicle
Inter-group comparison was performed in terms of tumor volume, tumor weight and body weight, using a student's t test. P values of less than 0.05 were considered to be statistically significant.

| Compound | Tumor weight on Day 16 (animal F1) | Tumor weight on Day 16 (animal F2) | Tumor weight on Day 16 (animal F3) | Tumor weight on Day 16 (animal F4) | Tumor weight on Day 16 (animal F5) | Tumor weight on Day 16 (animal M1) | Tumor weight on Day 16 (animal M2) | Tumor weight on Day 16 (animal M3) | Tumor weight on Day 16 (animal M4) | Tumor weight on Day 16 (animal M5) | Tumor Weight (g) (Mean ± SD) | percent inhibition of tumor weight vs vehicle |
| --- | --- | --- | --- | --- | --- | --- | --- | --- | --- | --- | --- | --- |
| CN(C)/N=N/c1[nH]cnc1C(N)=O [DTIC, Dacarbazine] | 1.40 g | 0.43 g | 0.47 g | 0.68 g | 0.56 g | 1.80 g | 1.80 g | 0.83 g | 2.30 g | 1.90 g | 1.22 ± 0.699 g | 28.41% |
| CNC(=O)c1cc(Oc2ccc(NC(=O)Nc3ccc(Cl)c(C(F)(F)F)c3)cc2)ccn1 [Sorafenib] | 0.23 g | 0.16 g | 0.32 g | 0.30 g | 0.16 g | 0.10 g | 0.38 g | 0.20 g | 0.25 g | 0.32 g | 0.24 ± 0.088 g | 85.76% |
| Thymosin Alpha-1 (Ac-SDAAVDTSSEITTKDLKEKKEVVEEAEN; ends and bridges not checked; UniProt P06454 2-29, looked up) [TA-1, 28 amino acid peptide, immunomodulator; test article (SciClone), 6 mg/kg s.c. daily] | 0.63 g | 0.44 g | 0.45 g | 0.75 g | 0.08 g | 0.73 g | 1.30 g | 2.00 g | 2.20 g | 1.05 g | 0.96 ± 0.688 g | 43.35% |
